Measured values taken from the supplement of paper PMC13380429.

How the values were obtained:
Settings in all cases: 72 h
Caco-2 [1] = experiment: drug sensitivity score (DSS) for viability; higher = more toxic; extreme values may be limits of the assay
Calu-3 [2] = experiment: as above
Vero E6 [3] = experiment: as above
HepG2 [4] = experiment: as above
U2OS [5] = experiment: as above
Caco-2 [6] = experiment: cell viability relative to DMSO; higher = less toxic
Calu-3 [7] = experiment: as above
Vero E6 [8] = experiment: as above
HepG2 [9] = experiment: as above
U2OS [10] = experiment: as above
Caco-2 [11] = experiment: relative viability EC50 (midpoint between 100% and the lowest measured viability); higher = less toxic
Calu-3 [12] = experiment: as above
Vero E6 [13] = experiment: as above
HepG2 [14] = experiment: as above
U2OS [15] = experiment: as above

Row | SMILES | drug sensitivity score (Caco-2 [1]) | drug sensitivity score (Calu-3 [2]) | drug sensitivity score (Vero E6 [3]) | drug sensitivity score (HepG2 [4]) | drug sensitivity score (U2OS [5]) | cell viability (Caco-2 [6]; 1 nM) | cell viability (Caco-2 [6]; 10 nM) | cell viability (Caco-2 [6]; 100 nM) | cell viability (Caco-2 [6]; 1000 nM) | cell viability (Caco-2 [6]; 10000 nM) | cell viability (Calu-3 [7]; 1 nM) | cell viability (Calu-3 [7]; 10 nM) | cell viability (Calu-3 [7]; 100 nM) | cell viability (Calu-3 [7]; 1000 nM) | cell viability (Calu-3 [7]; 10000 nM) | cell viability (Vero E6 [8]; 1 nM) | cell viability (Vero E6 [8]; 10 nM) | cell viability (Vero E6 [8]; 100 nM) | cell viability (Vero E6 [8]; 1000 nM) | cell viability (Vero E6 [8]; 10000 nM) | cell viability (HepG2 [9]; 1 nM) | cell viability (HepG2 [9]; 10 nM) | cell viability (HepG2 [9]; 100 nM) | cell viability (HepG2 [9]; 1000 nM) | cell viability (HepG2 [9]; 10000 nM) | cell viability (U2OS [10]; 1 nM) | cell viability (U2OS [10]; 10 nM) | cell viability (U2OS [10]; 100 nM) | cell viability (U2OS [10]; 1000 nM) | cell viability (U2OS [10]; 10000 nM) | relative viability EC50 (Caco-2 [11]) | relative viability EC50 (Calu-3 [12]) | relative viability EC50 (Vero E6 [13]) | relative viability EC50 (HepG2 [14]) | relative viability EC50 (U2OS [15])
1 | CCC(N)C(O)c1ccc(O)c(O)c1 (stereo not given) [ethylnorepinephrine] | 0 | 0 | 0 | 0 | 0 | 93.7% | 95.5% | 103% | 89.9% | 95.1% | 101% | 99.4% | 108% | 91.9% | 104% | 93.9% | 102% | 104% | 107% | 112% | 100% | 110% | 98.7% | 109% | 102% | 100% | 94.8% | 98.4% | 98.4% | 99.3% | > 10 µM | > 10 µM | > 10 µM | > 10 µM | > 10 µM
2 | C#CCC(Cc1cnc2nc(N)nc(N)c2n1)c1ccc(C(=O)N[C@@H](CCC(=O)O)C(=O)O)cc1 (stereo not given in full) [pralatrexate] | 16.7 | 0.8 | 36.7 | 35.4 | 0 | 97% | 81.8% | 55.3% | 49.6% | 56.2% | 107% | 102% | 91.4% | 88.2% | 93.6% | 98.9% | 19.2% | 14.4% | 16.7% | 14.2% | 99.2% | 22.9% | 21.3% | 17.8% | 17.1% | 105% | 76.8% | 97.2% | 90% | 98.6% | 0.0164 µM | > 10 µM | 0.0036 µM | 0.0038 µM | > 10 µM
3 | CN(C)CCNc1nc2cc(O)ccc2c2c1C(=O)c1ccccc1-2 [TAS-103] | 9.6 | 11.1 | 13.4 | 19.7 | 11.5 | 102% | 104% | 102% | 56.8% | 22.3% | 109% | 93.4% | 89.1% | 50.4% | 15.4% | 101% | 106% | 84.8% | 40% | 0.1% | 100% | 95.9% | 66.3% | 15.5% | 0.3% | 99.4% | 95.3% | 95.3% | 49.5% | 0% | 0.915 µM | 0.67 µM | 0.634 µM | 0.19 µM | 0.975 µM
4 | C[C@@H]1CN(c2c(F)c(F)c3c(=O)c(C(=O)O)cn(C4CC4)c3c2F)C[C@H](C)N1 [orbifloxacin] | 0 | 0 | 0 | 0 | 0 | 110% | 105% | 109% | 103% | 94.6% | 113% | 97.9% | 112% | 92.8% | 107% | 105% | 110% | 101% | 100% | 94.5% | 98.2% | 110% | 94.8% | 100% | 92.1% | 99.5% | 97.5% | 95.3% | 97.6% | 101% | > 10 µM | > 10 µM | > 10 µM | > 10 µM | > 10 µM
5 | Cc1nccn1CC1CCc2c(c3ccccc3n2C)C1=O (stereo not given) [ondansetron] | 0 | 0 | 0 | 0 | 0 | 102% | 99.4% | 94.1% | 81.2% | 104% | 84.8% | 90.1% | 81.6% | 97.6% | 89.2% | 101% | 97.4% | 103% | 95.6% | 103% | 95.6% | 83.5% | 97% | 105% | 93.3% | 96.5% | 99.4% | 103% | 99.4% | 102% | > 10 µM | > 10 µM | > 10 µM | > 10 µM | > 10 µM
6 | CNC(=O)N(C)N=O [nitrosodimethylurea] | 0 | 0 | 0 | 0 | 0 | 85.7% | 106% | 94.7% | 86.9% | 116% | 111% | 103% | 100% | 91.6% | 109% | 93.6% | 92.4% | 95.4% | 86.3% | 97.9% | 88.6% | 100% | 103% | 100% | 97.7% | 99.8% | 95.7% | 95.1% | 98% | 108% | > 10 µM | > 10 µM | > 10 µM | > 10 µM | > 10 µM
7 | C=CCn1c(=O)c2cnc(Nc3ccc(N4CCN(C)CC4)cc3)nc2n1-c1cccc(C(C)(C)O)n1 [MK-1775] | 12.4 | 13.1 | 9.7 | 13.8 | 14.7 | 106% | 99.4% | 96.1% | 35.4% | 25.9% | 108% | 93.4% | 70.8% | 50.9% | 28.8% | 100% | 94.7% | 94.1% | 57.4% | 14.2% | 99% | 89.5% | 91.2% | 33.3% | 10.2% | 102% | 95.7% | 97.6% | 21.3% | 5.8% | 0.399 µM | 0.218 µM | 0.981 µM | 0.466 µM | 0.49 µM
8 | Cn1cc(C(=O)C(=O)N[C@H]2CN3CCC2CC3)c2ccccc21 | 0 | 0 | 0 | 0 | 0 | 95.7% | 99.6% | 104% | 99.9% | 110% | 99.9% | 102% | 98.9% | 100% | 94.5% | 112% | 114% | 105% | 97.9% | 98.5% | 108% | 94.2% | 114% | 95.3% | 96.9% | 96.8% | 107% | 99.2% | 101% | 96.1% | > 10 µM | > 10 µM | > 10 µM | > 10 µM | > 10 µM
9 | Cc1cc(O)c2c(c1)C(=O)c1cccc(O)c1C2=O [chrysophanic-acid] | 0.8 | 0 | 0 | 0 | 0 | 102% | 91.2% | 92% | 92.5% | 88.9% | 104% | 98.1% | 92.4% | 91.2% | 93% | 93.5% | 97.3% | 100% | 93.5% | 96.1% | 98.4% | 104% | 97.8% | 95.7% | 105% | 99.5% | 103% | 96.7% | 104% | 97.7% | > 10 µM | > 10 µM | > 10 µM | > 10 µM | > 10 µM
10 | NC(=O)c1cnccn1 [pyrazinamide] | 0 | 0 | 0 | 0 | 0 | 104% | 120% | 92.8% | 107% | 89.8% | 99.5% | 100% | 94.2% | 104% | 93% | 105% | 93.5% | 106% | 95.3% | 104% | 103% | 103% | 105% | 97.9% | 103% | 93.7% | 101% | 98% | 104% | 96% | > 10 µM | > 10 µM | > 10 µM | > 10 µM | > 10 µM
11 | NS(=O)(=O)c1cc(C2(O)NC(=O)c3ccccc32)ccc1Cl (stereo not given) [chlorthalidone] | 0 | 0 | 0 | 0 | 0 | 107% | 84.5% | 96.8% | 98.6% | 99% | 96.7% | 92% | 107% | 86.6% | 97.4% | 97.4% | 102% | 98.8% | 103% | 97.3% | 97.5% | 106% | 97.7% | 107% | 99.6% | 98.4% | 97.4% | 97.3% | 96.8% | 102% | > 10 µM | > 10 µM | > 10 µM | > 10 µM | > 10 µM
12 | Cc1c(O)c(=O)ccn1C [deferiprone] | 0 | 0 | 0 | 0 | 0 | 92.4% | 98.3% | 93.4% | 116% | 93.4% | 89.6% | 106% | 109% | 100% | 98.2% | 101% | 102% | 99.3% | 98.1% | 99.9% | 103% | 97.4% | 98.3% | 97.1% | 101% | 96.5% | 100% | 100% | 94.5% | 96.2% | > 10 µM | > 10 µM | > 10 µM | > 10 µM | > 10 µM
13 | COc1cc(O)c2c(c1)C(=O)c1cc(C)cc(O)c1C2=O [rheochrysidin] | 0 | 0 | 0 | 0 | 0 | 100% | 109% | 97.9% | 96.9% | 93.5% | 101% | 104% | 105% | 101% | 96.8% | 98.9% | 102% | 98.5% | 98.8% | 101% | 92.7% | 106% | 108% | 107% | 109% | 93.4% | 98.8% | 101% | 100% | 93.5% | > 10 µM | > 10 µM | > 10 µM | > 10 µM | > 10 µM
14 | CC(C)c1ccc2c(c1)CC[C@H]1[C@](C)(CN)CCC[C@]21C [lylamine] | 4.8 | 5.2 | 5.7 | 4.9 | 4.9 | 109% | 103% | 106% | 98.4% | 16.7% | 96% | 98% | 97.8% | 104% | 1.4% | 108% | 108% | 105% | 97.8% | 3.1% | 104% | 109% | 92.3% | 110% | 0% | 103% | 98.5% | 103% | 97.1% | 19.4% | 3.03 µM | 3.37 µM | 3.01 µM | 3.64 µM | 2.9 µM
